Assay results from patent publication US5140040A, “1-aminomethyl-1,2,3,4-tetrahydronaphthalenes” (Abbott Laboratories, priority 1991, dated 1992).
pKi: −log10 of the molar value. Counter-ions that a name gives are not always drawn.

Experiments:
alpha-1-receptor = molecular target: T1, alpha-1-receptor (Rattus norvegicus, UniProt P15823); experiment: Radioligand binding, alpha-1 adrenoceptor, rat liver homogenates, [^3 H]-prazosin
T1 construct: rat liver homogenates; from tissue; host or cells: rat liver homogenates
T1 sequence (P15823 1-515): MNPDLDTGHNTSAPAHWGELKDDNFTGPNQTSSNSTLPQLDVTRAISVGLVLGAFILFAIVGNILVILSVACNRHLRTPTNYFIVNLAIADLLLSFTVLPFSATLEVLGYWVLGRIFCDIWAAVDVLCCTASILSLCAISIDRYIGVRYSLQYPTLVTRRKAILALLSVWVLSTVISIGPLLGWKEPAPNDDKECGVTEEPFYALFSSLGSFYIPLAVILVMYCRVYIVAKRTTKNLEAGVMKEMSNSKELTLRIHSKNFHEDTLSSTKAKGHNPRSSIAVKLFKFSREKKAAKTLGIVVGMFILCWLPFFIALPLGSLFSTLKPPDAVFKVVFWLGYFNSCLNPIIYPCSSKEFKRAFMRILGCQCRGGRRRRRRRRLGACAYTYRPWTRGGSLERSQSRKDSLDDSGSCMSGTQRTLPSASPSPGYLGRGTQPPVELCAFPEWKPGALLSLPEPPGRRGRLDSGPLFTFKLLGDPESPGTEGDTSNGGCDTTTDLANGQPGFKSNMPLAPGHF
Procedure: (§1) The compounds were assessed for alpha-adrenergic receptor subtype selectivity by use of radioligand binding techniques as described previously (DeBernardis et.al. J. Med. Chem. 28, 1398 (1985)).

alpha-2-receptor = experiment: Radioligand binding, alpha-2 adrenoceptor, rat cerebral cortices, [^3 H]-rauwolscine; conditions: for pKi: rat cerebral cortices, [^3 H]-rauwolscine; for alpha-2 - Selectivity Ki alpha-1/Ki alpha 2: ratio of Ki alpha-1 to Ki alpha-2
Procedure: as §1

intraocular pressure = experiment: Effect of topically administered compounds on intraocular pressure of rabbits; assay type: in vivo, New Zealand rabbits; conditions: 0.3% soln., 0.1 ml topical
Procedure: The intraocular pressure lowering effects of the compounds were evaluated in unanesthetized male albino, New Zealand rabbits weighing 2.0 to 2.5 kg. The rabbits were placed in Plas Labs restraining devices for the duration of the experiment. Intraocular pressure (IOP) was measured with a Bausch and Lomb Applamatic Tonometer and recorded as the average of three individual readings at each time point in the experiment. Baseline IOP values were established at three time points separated by 30 minutes. Each compound or vehicle was applied topically to the cornea in a volume of 0.1 ml to one eye in each six rabbits. The contralateral eye was untreated. IOP was recorded at 5, 15, 30, 60 and 90 minutes after dosing.

| Compound | pKi (alpha-1-receptor) | pKi (alpha-2-receptor) | alpha-2 - Selectivity Ki alpha-1/Ki alpha 2 (alpha-2-receptor) | % Change in Intraocular Pressure After Treatment Compared to Untreated Eye (intraocular pressure; 5 minutes) | % Change in Intraocular Pressure After Treatment Compared to Untreated Eye (intraocular pressure; 15 minutes) | % Change in Intraocular Pressure After Treatment Compared to Untreated Eye (intraocular pressure; 30 minutes) | % Change in Intraocular Pressure After Treatment Compared to Untreated Eye (intraocular pressure; 60 minutes) | % Change in Intraocular Pressure After Treatment Compared to Untreated Eye (intraocular pressure; 90 minutes) |
| --- | --- | --- | --- | --- | --- | --- | --- | --- |
| CN(CCc1cccs1)CC1CCCc2cc(Cl)ccc21 (centres unmarked) [Example 49, 1-((N-Methylamino)meth-N-(2-(2-thienyl)ethyl))-6-chloro tetralin hydrochloride] | 5.95 | 8.00 | 113 |  |  |  |  |  |
| CN(CCc1ccccc1)CC1CCCc2cc(O)ccc21 (centres unmarked) [11 (HCl salt)] | 6.60 | 8.77 | 149 | -38% | -55% | -54% | -44% | -20% |
| Fc1ccc2c(c1)CCCC2CN1CCC(c2cccs2)C1 (centres unmarked) [Example 149, 6-Fluoro-1-(3-(2-thienyl)pyrrolidino-1-methyl) tetralin methanesulfonate] | 6.66 | 8.31 | 45 |  |  |  |  |  |
| CN(C)c1ccc2c(c1)CCCC2CN1CCC(c2ccccc2)C1 (centres unmarked) [Example 188, 6-(N-N'-dimethylamino)-1-(3-phenylpyrrolidino-1-methyl)tetralin dihydrochloride] | 6.93 | 9.30 | 236 |  |  |  |  |  |
| 5-Methoxy-1-(3-phenylpyrrolidino-1-methyl) indane hydrochloride [Example 152] | 7.29 | 8.32 | 11 |  |  |  |  |  |
